Test results: patent EP1733758A1, “Methods for administration of a farnesyl dibenzodiazepinone” (Ecopia Biosciences Inc., priority 2005, dated 2006)
Where two headings read alike, the source gives them in different places.

Columns and labels:
[1] = tested on: human glioma (U-87MG) tumor xenograft; experiment: Human U-87MG glioblastoma xenograft antitumor efficacy study; format: in vivo, female athymic (nu/nu) nude mice; settings: SC bolus 30 mg/kg q1d x 5 over 2 weeks
From the text: In this model and the models of Examples 3, 6 and 7, tumor growth was followed every other day by measuring tumor length (L) and width (W) using a calliper. Measurements were converted to tumor volumes (TV; mm^3) using the standard formula, TV = (L xW^2)/2. Tumor volume at day n was expressed as relative tumor volume (RTV) according to the following formula RTV = TVn / TV0, where TVn is the tumor volume at day n and TV0 is the tumor volume at day 0. The percentage of tumor growth inhibition (%TGI) was determined by 1 ― (mean RTV of treated group/ mean RTV of control group) x 100. […] Statistical analysis was calculated by the two-tailed unpaired t test using the Prism software. Animals were weighed at least twice weekly during and after treatment until completion of the study. The mice were examined frequently for overt signs of any adverse drug-related side effects.
The human U-87 MG (ATCC® no. HTB-14™) glioblastoma antitumor efficacy study was performed at INSERM U318 (Grenoble, France). […]
For the human glioblastoma antitumor efficacy study, female athymic (nu/nu) nude mice (6-7 weeks of age) were inoculated SC with 5 x 10^6 U-87MG cells (day 0). […] Tumor growth inhibition (TGI) was calculated on day 34 post tumor cell inoculation, at which time some animals from the vehicle control group had to be sacrificed due to tumor burden.

[2] = Pharmacokinetics and tissue distribution after bolus IV, IP, SC and PO administration in mice; format: in vivo, female Crl: CD1 mice
Description: The compound of formula I was dissolved in ethanol (5%), Polysorbate 80 (15%), PEG 400 (5%) and dextrose (5%) at a final concentration of 6 mg/ml (IV, IP and SC administration). For oral administration, the compound of Formula I was solubilized in Chremophor® EL/ Ethanol (50%:50%) at a final concentration of 6 mg/ml. Prior to dosing, animals (female Crl: CD1 mice; 6 weeks of age, 22-24g) were weighed, randomly selected and assigned to the different treatment groups. The compound of Formula I was administered by the bolus intravenous (IV), bolus subcutaneous (SC), bolus intraperitoneal (IP), or oral (PO) route to the assigned animals. The dosing volume of Formula I was 5 mL per kg body weight. Animals were anesthetized prior to bleeding with 5% isoflurane. Blood was collected into microtainer tubes containing the anticoagulant K2EDTA by cardiac puncture from each of 4 animals per bleeding timepoint (2min, 5 min, 15 min, 30 min, 1 h, 2h, 4h and 8h). Following collection, the samples were centrifuged and the plasma obtained from each sample was recovered and stored frozen (at approximately - 80°C) pending analysis. At the 5 min and 30 min time points, the following organs were harvested from each animal: brain, lungs, skeletal muscle, fat tissue, kidneys, spleen, thymus and liver. Tissues were frozen (at approximately -80°C) pending analysis. Samples were analysed by LC/MS/MS.
Plasma values of the compound of Formula I falling below the limit of quantitation (LOQ) were set to zero. […] The following pharmacokinetic parameters were calculated: area under the plasma concentration versus time curve from time zero to the last measurable concentration time point (AUCO-t), area under the plasma concentration versus time curve extrapolated to infinity (AUCinf), maximum observed plasma concentration (Cmax), time of maximum plasma concentration (tmax), apparent first-order terminal elimination rate constant (kel), apparent first-order terminal elimination half-life will be calculated as 0.693/kel (t1/2). The systemic clearance (CL) of the compound of Formula I after intravenous administration was calculated using Dose/AUCinf. Pharmacokinetic parameters were calculated using Kinetica™ 4.1.1 (InnaPhase Corporation, Philadelphia, PA).

[3] = Acute toxicity of 24-hour CIV administration in monkeys; format: in vivo; settings: infusion rate 2 mL/kg/hour

Structure (SMILES): CC(C)=CCC/C(C)=C/CC/C(C)=C/CN1C(=O)c2cccc(O)c2Nc2c(O)cc(O)cc21 [Formula I, 10-farnesyl-4,6,8-trihydroxy-dibenzodiazepin-11-one]
- body weight loss [1]: no significant body weight loss
- %TGI ([1]; day 34, P = 0.05): 36%
- plasma concentration ([2]; 30 mg/kg bolus IV, initial): 425000 nM
- peak concentration ([2]; IP bolus, plasma): 7.8 µM
- time peak concentration reached ([2]; IP bolus, plasma): 15 min
- tissue distribution ([2]; IV and IP bolus 30 mg/kg, 30 min): well distributed
- tissue levels compared with IP ([2]; SC bolus 30 mg/kg, 30 min): significantly lower
- peak concentration ([2]; SC bolus, plasma): 2.3 µM
- time peak concentration reached ([2]; SC bolus, plasma): 60 min
- bioavailability ([2]; female, Crl: CD1, mouse, plasma, PO 30 mg/kg compared to IV bolus administration, read-out: orally bioavailable): 5 to 8%
- half-life ([2]; female, Crl:CD1, mouse, bolus IV 30 mg/kg, plasma, read-out: t1/2 α): 4.7 min
- concentration at 8 h ([2]; female, Crl:CD1, mouse, plasma, 30 mg/kg bolus IV, by 8 hours, read-out: plasma concentration): ~100 nM
- concentration at 4 h ([2]; female, Crl:CD1, mouse, plasma, 30 mg/kg bolus IV, four hours after administration): 200 nM
- concentration at 1 h ([2]; female, Crl:CD1, mouse, plasma, 30 mg/kg bolus IV, within one hour): 1300 nM
- concentration at 8 h ([2]; female, Crl:CD1, mouse, plasma, 30 mg/kg, IP bolus, read-out: plasma concentration remained for up to 8 hours): ~950 nM
- concentration at 8 h ([2]; female, Crl:CD1, mouse, plasma, 30 mg/kg, SC bolus, read-out: plasma concentration remained for up to 8 hours): ~1800 nM
- time plasma concentration is maintained at therapeutically relevant levels ([2]; intraperitoneal and subcutaneous 30 mg/kg): over 8 hours
- acute toxicity / tolerability ([3]; 35 mg/kg): well tolerated
- acute toxicity / tolerability ([3]; 70 mg/kg): well tolerated
